Data: patent US7638269B2, “Viral capsid assembly intermediates and methods of production” (priority 1997, dated 2009)
“Also recorded” adds a separate entry of the source.

Tests used:
[1] = tested on: immature HIV capsids (Gag Pr55); test: Cell-free translation and assembly of HIV capsids in wheat germ extract programmed with Gag transcript; type: biochemical; settings: for Material in fractions corresponding to Final Capsid / Material in fractions corresponding to complex A / Material in fractions corresponding to complexes B/C: velocity sedimentation, apyrase added post-translationally, detergent cotranslationally
Description: Translation of the transcription products was carried out in wheat germ extract containing ^35S methionine (ICN Pharmaceuticals, Costa Mesa, Calif.). The wheat germ extract was prepared as described by Erickson and Blobel (1983) as modified below. Reactions were performed as previously described (Lingappa, J. R., et al., J. Cell. Biol. (1984) 125:99-111), except for modifications noted below.
A 25 microliter wheat germ transcription/translation reaction mixture contained: 5 microliters Gag transcript (prepared as described in transcription methods), 5 microliters wheat germ extract (prepared as described in wheat germ preparation; preferably using the high speed supernatant detailed in Example 4), 5 microliters 35-S Energy Mix 5× stock (Sigma Chemical Co., St. Louis, Mo.), 2.5 microliters Compensating Buffer (Sigma Chemical Co.), 1.0 microliter 40 mM MgAcetate (Sigma Chemical Co.), 2.0 microliters […] Myristoyl CoA (made up in 20 mM Tris Acetate, pH 7.6; Sigma Chemical Co.), 3.75 microliters 20 mM Tris Acetate buffer, […] (U.S. Biochemicals; Cleveland, Ohio), 0.25 microliter Creatine Kinase (4 mg/ml stock in 50% glycerol, 10 mM Tris Acetate; Boehringer Mannheim, Indianapolis, Ind.), 0.25 microliter bovine tRNA (10 mg/ml stock; Sigma Chemical Co.), and 0.25 microliter RNAse Inhibitor (20 units/50; Promega).
Myristoyl coenzyme A (MCoA; Sigma, St. Louis, Mo.) was added at a concentration of 10 micromolar at the start of translation when indicated. Translation reactions ranged in volume from 20 to 100 microliters and were incubated at 25° C. for 150 min. Some reactions were adjusted to a final concentration of the following agents at tunes indicated in the figures and specification: 0.2 μM emetine (Sigma); 1.0 units apyrase (Sigma) per mL translation; 0.002%, 0.1%, or 1.0% “NIKKOL”. Cell-free translation and assembly reactions were also carried out successfully in rabbit reticulocyte lysate prepared as described previously (Merrick, W. C., Methods Enzymol. 101:606-615 (1983)) or obtained from commercial suppliers (Promega, Madison, Wis.). In pulse-chase experiments, translation reactions contained ^35S cysteine (Amersham Life Sciences, Cleveland, Ohio) for radiolabeling. After 4 min translation reaction time, 3 mM unlabeled cysteine was added, and the reaction was continued at 25° C. for variable chase times as indicated in the experiments described herein.
Where indicated, wheat germ extract prepared as described in Example 1 was centrifuged at either 50,000 rpm for 21 min or 100,000 rpm for 30 min in a TLA 100 rotor (Beckman Instruments, Palo Alto, Calif.). The supernatant (high-speed supernatant, HSS) of the 50,000 rpm spin was used for cell-free translation and assembly reactions. The pellet of the 100,000 rpm spin (high speed pellet, HSP) was resuspended at a 5× concentration in buffer (25 mM Hepes pH 7.4, 4 mM MgAc, 100 mM KAc, 0.25M sucrose). Wheat germ extract adjusted to contain a concentration 0.5% “NIKKOL” was subjected to the same ultracentrifugation in parallel to generate the detergent treated high-speed pellet (HSPd). This pellet was washed twice with […] of the above non-detergent buffer in order to remove traces of detergent, and then resuspended as described above. Following treatment with emetine at […], 1.8 μL of HSP or HSPd was added to the […] cell-free reactions programmed with HSS. Control reactions were treated with the same volume of buffer at the same time. At the end of the 150 min incubation, reactions were separated into soluble and particulate fractions and analyzed as described above.
The cell-free translation/assembly system of the invention contains the components described in Part A, above. Example 1 provides details of an exemplary system derived from wheatgerm extract, which is capable of supporting translation and assembly of HIV capsids. Briefly, protein synthesis was initiated in the cell-free translation/assembly system by adding an mRNA that encodes Gag Pr55 protein. […]

[2] = tested on: HBV capsids (HBV core); type: biochemical
Chain of HBV capsids (HBV core) (P03146 whole entry): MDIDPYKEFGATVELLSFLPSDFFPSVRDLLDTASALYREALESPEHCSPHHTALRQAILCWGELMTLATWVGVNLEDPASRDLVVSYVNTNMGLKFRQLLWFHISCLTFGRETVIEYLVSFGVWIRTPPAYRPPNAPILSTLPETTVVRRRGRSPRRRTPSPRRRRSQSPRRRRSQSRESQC
Description: The radiolabeled translation products were analyzed for formation of HBV core multimers by rae sedimentation on 10-50% sucrose gradients at 200,000 g for 1 h. Following fractionation of the gradients, the migration of radiolabeled core proteins was determined using SDS-PAGE, Coomassie staining, and autoradiography. Under these conditions, unlabeled protein standards of less than 12S, such as catalase, migrated in the first three fractions. […] The first region, at the top of the gradient (7) corresponds to the position of monomeric and small oligomeric core polypeptides, while the second region, in the middle of the gradient (M), corresponds to the position of authentic capsids. The third region, in the pellet (P), represents very high molecular weight structures. The possibility that either the pellet or the middle fraction consists of completed chains not yet released from ribosomes was ruled out by treatment of the translation products after completion of synthesis with EDTA, which is known to disassemble ribosomes (Sabatini et al., 1966).
To address this, pellet material was isolated by fractionating the products of a 30-min translation of HBV core on a sucrose gradient and resuspending the pellet in buffer. The resuspended pellet was divided into equal aliquots and treated either with aphyase or with buffer for 90 min at 24° C.

[3] = tested on: HIV-1 particle formation; type: cell-based; settings: Cos-1 cells
Description: Cos-1 cells were transfected using Gag expression plasmids pCMVRev and PSVGagRRE-R described in Simon et al, J. Virology, (1997) 71:1013-18. HP68 plasmids for mammalian expression were constructed by using PCR to insert the coding regions for WGHP68, amino acids 1-378, Nhe1/Xba1 of pCDNA 3.1 (Invitrogen). Coding regions of all constructs were sequenced. Cells were transfected using Gibco Lipofectamine (Cos-1) or Lipofectamine Plus (293T). All transfections used a constant amount of DNA (18 μg per 60 mm dish). Medium was changed 24 hours after transfection and harvest was performed 28 or 60 hours after transfection for immunofluorescence and immunoblotting respectively. For immunofluorescence, cells were fixed in paraformaldehyde, permeabilized with 1% triton, and incubated with mouse HIV-1 Gag antibody (1:50) and affinity-purified HuHP68 antiserum (1:2000), followed by Cy3- and Cy 2-coupled secondary (Jackson) (1:200). 178 cells were quantitated. For immunoblotting in FIG. 13 rat IgG was added to medium as a tracer at 10 μg/ml at the time of harvest, and cells were harvested in SDS sample buffer with boiling. For quantitation of immunoblotts, bands were compared to an immunoblot standard curve generated with known quantities of sample. […]

[4] = emetine added after 50 min, incubated to 150 min

Nc1ncnc2c1ncn2[C@@H]1O[C@H](COP(=O)(O)OP(=O)(O)NP(=O)(O)O)[C@@H](O)[C@H]1O [AMP-PNP]
reversal of the effect of ATP depletion on assembly ([1]; added after apyrase treatment): not reversed

O=C(O)CN(CCN(CC(=O)O)CC(=O)O)CC(=O)O [EDTA]
distribution of labeled core polypeptides in top, middle and pellet fractions ([2]; treatment of translation products after completion of synthesis, 10 mM): largely unaffected; also recorded: had no effect

CCCCCCCCCCCCCC(=O)SCCNC(=O)CCNC(=O)[C@H](O)C(C)(C)COP(=O)(O)OP(=O)(O)OC[C@H]1O[C@@H](n2cnc3c(N)ncnc32)[C@H](O)[C@@H]1OP(=O)(O)O [MCoA, Myristoyl Coenzyme A]
total amount of Pr55 synthesized ([1]; 10 μM MCoA): had no effect on the total amount of Pr55 synthesized
assembly into capsids ([1]; 10 μM MCoA added at 90 min, post-translational phase): very little assembly occurred

CCCCCCCCCCCCOCCOCCOCCOCCOCCOCCOCCOCCO [NIKKOL, octaethyleneglycol mono n-dodecyl ether]
capsid assembly ([1]; 0.002% added at start of translation, 10 μM MCoA): This effect was not observed
capsid assembly ([1]; 0.1% added at start of translation, 10 μM MCoA): largely abolished capsid assembly
amount of assembly ([1]; added after completion of the 150 min assembly reaction, up to 1.0%): did not diminish the amount of assembly
Gag polypeptide synthesis ([1]; concentration of 0.1%): had no effect on Gag polypeptide synthesis
assembly ([1]; emetine and 0.1% NIKKOL, post-translational phase 50 min into the reaction): assembly was dramatically reduced
Material in fractions corresponding to Final Capsid [1]: 189
Material in fractions corresponding to complex A [1]: 2656
Material in fractions corresponding to complexes B/C [1]: 6130

CC[C@H]1CN2CCc3cc(OC)c(OC)cc3[C@@H]2C[C@@H]1C[C@H]1NCCc2cc(OC)c(OC)cc21 [emetine]
proportion of capsid assembly [1, 4]: comparable to that of the untreated control
total Pr55 synthesis, of the control [1, 4]: 60%
effect on treatment of the isolated pellet with energy substrates or apyrase [2]: did not affect the results

apyrase
amount of assembly (capsid stability) ([1]; apyrase added after capsid assembly was completed): had no effect on the amount of assembly
total amount of Pr55 synthesis ([1]; apyrase added after emetine at 50 min): did not change the total amount of Pr55 synthesis
capsid assembly ([1]; apyrase added immediately after 0.2 μM emetine at 50 min, 150 min): dramatic reduction in capsid assembly
Material in fractions corresponding to Final Capsid [1]: 133
Material in fractions corresponding to complex A [1]: 2851
Material in fractions corresponding to complexes B/C [1]: 5999
release of capsids from the isolated pellet ([2]; resuspended pellet of a 30-min translation, 90 min at 24° C.): results in release of completed capsids from the pellet

B1: WGHP68-Tr1: 379 amino acid truncated form of wheat germ HP68, stop codon before the second nucleotide-binding domain (protein)
chain: MADRLTRIAIVSEDKCKPKKCRQECKKSCPVVKTGKLCIEVSPVAKLAFISEELCIGCGICVKKCPFDAIEIINLPKDLEKDTTHRYGPNTFKLHRLPVPRPGQVLGLVGTNGIGKSTALKVLAGKLKPNLGRFKNPPDWQEILTYFRGSELQNYFTRILEDNLKAIIKPQYVDHIPKAVQGNVGQVLEQKDERDMKNELCVDLELNQVIDRNVGDLSGGELQRFAIAVVAVQSAEIYMFDEPSSYLDVKQRLKAARVIRSLLRSNSYVIVVEHDLSVLDYLSDFICCLYGKPGAYGVVTLPFSVREGINIFLAGFVPTENLRFRDESLTFKIAETQESAEEVATYQRYKYPTMSKTQGNFKLSVVEGEFTDSQIVVM
Gag and actin levels in cell lysates [3]: remained unchanged
toxicity to cells [3]: not toxic to cells
